Assay results as given in patent US20080090734A1, “DRUG SCREENING AND TARGET IDENTIFICATION USING SPR IMAGING OF TARGET PROTEIN ARRAYS” (The Trustees of California State University, priority 2006, published 2008).

Key:
Test in all cases: Antibiotic susceptibility profile
Assay type in all cases: cell-based, Acinetobacter baumannii
Set-up in all cases: key: Resistance; Intermediate; Susceptible
[1] = tested on: A. baumannii clinical isolate NY E
Description: (§1) We obtained over thirty clinical isolates of A. baumannii from nosocomial infections in New York City and Los Angeles. […] Only antibiotics with breakpoints for A. baumannii were used. […] Isolates LA 01 to 20 were acquired from Los Angels County while NY-A to NY-H were obtained from New York City.
(§2) Antibiotic susceptibility profiles of clinical isolates of A. baumannii and reference strains. R, I, and S denote Resistance, Intermediate and Susceptible, respectively. Genetic Profiling of Clinical Isolates of A. baumannii

[2] = tested on: A. baumannii clinical isolate LAC 10
Description: as §1, §2

[3] = tested on: A. baumannii clinical isolate LAC 01
Description: as §1, §2

[4] = tested on: A. baumannii clinical isolate NY C
Description: as §1, §2

[5] = tested on: A. baumannii clinical isolate NY H
Description: as §1, §2

[6] = tested on: A. baumannii clinical isolate NY G
Description: as §1, §2

[7] = tested on: A. baumannii clinical isolate LAC 03
Description: as §1, §2

[8] = tested on: A. baumannii reference strain 17978; details: strain 17978 (ATCC)
Description: as §1, §2

[9] = tested on: A. baumannii clinical isolate LAC 14
Description: as §1, §2

[10] = tested on: A. baumannii clinical isolate NY B
Description: as §1, §2

[11] = tested on: A. baumannii reference strain 15839; details: strain 15839 (ATCC)
Description: as §1, §2

[12] = tested on: A. baumannii clinical isolate LAC 13
Description: as §1, §2

[13] = tested on: A. baumannii clinical isolate LAC 08
Description: as §1, §2

[14] = tested on: A. baumannii clinical isolate LAC 06
Description: as §1, §2

[15] = tested on: A. baumannii clinical isolate LAC 02
Description: as §1, §2

[16] = tested on: A. baumannii clinical isolate LAC 11
Description: as §1, §2

[17] = tested on: A. baumannii clinical isolate LAC 12
Description: as §1, §2

[18] = tested on: A. baumannii clinical isolate LAC 09
Description: as §1, §2

[19] = tested on: A. baumannii reference strain 19606; details: strain 19606 (ATCC)
Description: as §1, §2

[20] = tested on: A. baumannii clinical isolate LAC 15
Description: as §1, §2

[21] = tested on: A. baumannii reference strain SDF
Description: as §1, §2

[22] = tested on: A. baumannii clinical isolate LAC 20
Description: as §1, §2

[23] = tested on: A. baumannii clinical isolate NY A
Description: as §1, §2

[24] = tested on: A. baumannii clinical isolate LAC 16
Description: as §1, §2

[25] = tested on: A. baumannii clinical isolate NY D
Description: as §1, §2

[26] = tested on: A. baumannii clinical isolate LAC 19
Description: as §1, §2

[27] = tested on: A. baumannii clinical isolate LAC 18
Description: as §1, §2

[28] = tested on: A. baumannii reference strain AYE
Description: as §1, §2

[29] = tested on: A. baumannii clinical isolate LAC 04
Description: as §1, §2

[30] = tested on: A. baumannii clinical isolate LAC 07
Description: as §1, §2

[31] = tested on: A. baumannii clinical isolate LAC 17
Description: as §1, §2

[32] = tested on: A. baumannii clinical isolate LAC 05
Description: as §1, §2

[33] = tested on: A. baumannii clinical isolate NY F
Description: as §1, §2

Measured: Antibiotic susceptibility

CO/N=C(\C(=O)N[C@@H]1C(=O)N2C(C(=O)O)=C(CSc3nc(=O)c(=O)[nH]n3C)CS[C@H]12)c1csc(N)n1 [CRO, Ceftriaxone]
S: [8]
I: [1] | [13] | [19] | [21] | [32]
R: all other assays above

CO/N=C(\C(=O)N[C@@H]1C(=O)N2C(C(=O)O)=C(COC(C)=O)CS[C@H]12)c1csc(N)n1 [CTX, Cefotaxime]
I: [13] | [19] | [32]
S: [8] | [21]
R: all other assays above

NCC[C@H](O)C(=O)N[C@@H]1C[C@H](N)[C@@H](O[C@H]2O[C@H](CN)[C@@H](O)[C@H](O)[C@H]2O)[C@H](O)[C@H]1O[C@H]1O[C@H](CO)[C@@H](O)[C@H](N)[C@H]1O [AMK, Amikacin]
S: [1] | [3] | [6] | [8] | [9] | [12] | [14] | [16] | [17] | [19] | [21]
I: [7] | [10] | [13] | [15] | [22] | [23] | [27] | [29] | [31]
R: all other assays above

CCN1CCN(C(=O)N[C@@H](C(=O)N[C@@H]2C(=O)N3[C@@H]2SC(C)(C)[C@@H]3C(=O)O)c2ccccc2)C(=O)C1=O [PIP, Piperacillin]
S: [8] | [14]
I: [11] | [13] | [19] | [32]
R: all other assays above
